# Laboratory results reported in PubChem BioAssay AID2060503 (Molecular Pharmacology Branch, DTP, NCI, 2025).
# Tested on: 817829-284-R-J1-PDC complex spheroids, viability
# Assay: Anticancer human tumor 817829-284-R-J1-PDC patient-derived colon adenocarcinoma cell line growth inhibition [GQUAD]
# Conditions: for IC50: curve of first compound; for viability, T/C: stronger effect = lower value
# How it was run: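 Viability of tumor cells grown as complex spheroids with endothelial and stromal cells, exposed to drug combinations. Top concentration at or near clinical Cmax (else 10 microM), diluted in half-log increments.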
# [1] = second compound 0.0316 µM, first compound 0.0316 µM
# [2] = second compound 0.0316 µM, first compound 0.316 µM
# [3] = second compound 0.1 µM, first compound 0.0316 µM
# [4] = second compound 0.1 µM, first compound 0.316 µM
# [5] = second compound 0.316 µM, first compound 0.0316 µM
# [6] = second compound 0.316 µM, first compound 0.316 µM
# [7] = second compound 1 µM, first compound 0.0316 µM
# [8] = second compound 1 µM, first compound 0.316 µM
# [9] = second compound 3.16 µM, first compound 0.0316 µM
# [10] = second compound 3.16 µM, first compound 0.316 µM
# [11] = second compound 10 µM, first compound 0.0316 µM
# [12] = second compound 10 µM, first compound 0.316 µM
# [13] = second compound 0.0316 µM, first compound 0.1 µM
# [14] = second compound 0.0316 µM, first compound 1 µM
# [15] = second compound 0.0316 µM, first compound 3.16 µM
# [16] = second compound 0.0316 µM, first compound 10 µM
# [17] = second compound 0.1 µM, first compound 0.1 µM
# [18] = second compound 0.1 µM, first compound 1 µM
# [19] = second compound 0.1 µM, first compound 3.16 µM
# [20] = second compound 0.1 µM, first compound 10 µM
# [21] = second compound 0.316 µM, first compound 0.1 µM
# [22] = second compound 0.316 µM, first compound 1 µM
# [23] = second compound 0.316 µM, first compound 3.16 µM
# [24] = second compound 0.316 µM, first compound 10 µM
# [25] = second compound 1 µM, first compound 0.1 µM
# [26] = second compound 1 µM, first compound 1 µM
# [27] = second compound 1 µM, first compound 3.16 µM
# [28] = second compound 1 µM, first compound 10 µM
# [29] = second compound 3.16 µM, first compound 0.1 µM
# [30] = second compound 3.16 µM, first compound 1 µM
# [31] = second compound 3.16 µM, first compound 3.16 µM
# [32] = second compound 3.16 µM, first compound 10 µM
# [33] = second compound 10 µM, first compound 0.1 µM
# [34] = second compound 10 µM, first compound 1 µM
# [35] = second compound 10 µM, first compound 3.16 µM
# [36] = second compound 10 µM, first compound 10 µM
# 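Also: spheroids exposed to agents for 7 days before readout.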
# 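For viability, T/C in this document: percent viability relative to DMSO vehicle control taken as 100%.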
compound,measurement,setting,value
Cc1[nH]c2ccccc2c1CCNCc1ccc(/C=C/C(=O)NO)cc1 + Cc1cnc(CNC(=O)c2c(=O)c3ccc(N4CCCN(C)CC4)nc3n3c2sc2ccccc23)cn1,IC50,second compound 0.0316 µM,0.00725 µM
same,IC50,second compound 0.1 µM,< 0.000999 µM
same,IC50,second compound 0.316 µM,< 0.000999 µM
same,IC50,second compound 1 µM,< 0.000999 µM
same,IC50,second compound 3.16 µM,< 0.000999 µM
same,IC50,second compound 10 µM,< 0.000999 µM
same,"viability, T/C","second compound 0.0316 µM, first compound 0.000999 µM",83.2%
same,"viability, T/C","second compound 0.0316 µM, first compound 0.00316 µM",67.1%
same,"viability, T/C","second compound 0.0316 µM, first compound 0.00999 µM",44.2%
same,"viability, T/C",[1],17.7%
same,"viability, T/C","second compound 0.0316 µM, first compound 0.0999 µM",5.1%
same,"viability, T/C",[2],0.06%
same,"viability, T/C","second compound 0.1 µM, first compound 0.000999 µM",27.4%
same,"viability, T/C","second compound 0.1 µM, first compound 0.00316 µM",31.7%
same,"viability, T/C","second compound 0.1 µM, first compound 0.00999 µM",21.3%
same,"viability, T/C",[3],18.4%
same,"viability, T/C","second compound 0.1 µM, first compound 0.0999 µM",6.46%
same,"viability, T/C",[4],0.06%
same,"viability, T/C","second compound 0.316 µM, first compound 0.000999 µM",21.5%
same,"viability, T/C","second compound 0.316 µM, first compound 0.00316 µM",24.8%
same,"viability, T/C","second compound 0.316 µM, first compound 0.00999 µM",17.1%
same,"viability, T/C",[5],15.9%
same,"viability, T/C","second compound 0.316 µM, first compound 0.0999 µM",4.53%
same,"viability, T/C",[6],0.05%
same,"viability, T/C","second compound 1 µM, first compound 0.000999 µM",18.3%
same,"viability, T/C","second compound 1 µM, first compound 0.00316 µM",20.6%
same,"viability, T/C","second compound 1 µM, first compound 0.00999 µM",15.7%
same,"viability, T/C",[7],13.7%
same,"viability, T/C","second compound 1 µM, first compound 0.0999 µM",3.62%
same,"viability, T/C",[8],0.06%
same,"viability, T/C","second compound 3.16 µM, first compound 0.000999 µM",15.1%
same,"viability, T/C","second compound 3.16 µM, first compound 0.00316 µM",18.6%
same,"viability, T/C","second compound 3.16 µM, first compound 0.00999 µM",15.4%
same,"viability, T/C",[9],11.8%
same,"viability, T/C","second compound 3.16 µM, first compound 0.0999 µM",0.11%
same,"viability, T/C",[10],0.1%
same,"viability, T/C","second compound 10 µM, first compound 0.000999 µM",0.1%
same,"viability, T/C","second compound 10 µM, first compound 0.00316 µM",0.14%
same,"viability, T/C","second compound 10 µM, first compound 0.00999 µM",0.2%
same,"viability, T/C",[11],0.18%
same,"viability, T/C","second compound 10 µM, first compound 0.0999 µM",0.2%
same,"viability, T/C",[12],0.2%
CC(C)(O)C1CCC(Nc2ccc3ncc(-c4cccc(C(F)(F)F)c4)n3n2)CC1 (stereo unspecified) + Cc1[nH]c2ccc(F)cc2c1-c1nc2c3cccnc3c3ncccc3c2[nH]1,IC50,second compound 0.0316 µM,2.5 µM
same,IC50,second compound 0.1 µM,1.31 µM
same,IC50,second compound 0.316 µM,0.955 µM
same,IC50,second compound 1 µM,0.62 µM
same,IC50,second compound 3.16 µM,< 0.0316 µM
same,IC50,second compound 10 µM,< 0.0316 µM
same,"viability, T/C",[1],109%
same,"viability, T/C",[13],104%
same,"viability, T/C",[2],88.8%
same,"viability, T/C",[14],64%
same,"viability, T/C",[15],32.5%
same,"viability, T/C",[16],57.5%
same,"viability, T/C",[3],94.6%
same,"viability, T/C",[17],110%
same,"viability, T/C",[4],104%
same,"viability, T/C",[18],51.9%
same,"viability, T/C",[19],25.5%
same,"viability, T/C",[20],61.6%
same,"viability, T/C",[5],106%
same,"viability, T/C",[21],111%
same,"viability, T/C",[6],84.5%
same,"viability, T/C",[22],52%
same,"viability, T/C",[23],25.7%
same,"viability, T/C",[24],54.1%
same,"viability, T/C",[7],107%
same,"viability, T/C",[25],109%
same,"viability, T/C",[8],78.9%
same,"viability, T/C",[26],30.9%
same,"viability, T/C",[27],8.2%
same,"viability, T/C",[28],32.7%
same,"viability, T/C",[9],3.3%
same,"viability, T/C",[29],3.58%
same,"viability, T/C",[10],2.98%
same,"viability, T/C",[30],1.34%
same,"viability, T/C",[31],0.58%
same,"viability, T/C",[32],1.69%
same,"viability, T/C",[11],2.48%
same,"viability, T/C",[33],2.78%
same,"viability, T/C",[12],2.18%
same,"viability, T/C",[34],1.41%
same,"viability, T/C",[35],0.83%
same,"viability, T/C",[36],1.5%
CC1COCCN1c1cc(C2(S(C)(=N)=O)CC2)nc(-c2ccnc3[nH]ccc23)n1 (stereo unspecified) + Cc1[nH]c2ccc(F)cc2c1-c1nc2c3cccnc3c3ncccc3c2[nH]1,IC50,second compound 0.0316 µM,0.699 µM
same,IC50,second compound 0.1 µM,0.701 µM
same,IC50,second compound 0.316 µM,0.683 µM
same,IC50,second compound 1 µM,0.709 µM
same,IC50,second compound 3.16 µM,0.508 µM
same,IC50,second compound 10 µM,< 0.0316 µM
same,"viability, T/C",[1],110%
same,"viability, T/C",[13],95.6%
same,"viability, T/C",[2],106%
same,"viability, T/C",[14],25.7%
same,"viability, T/C",[15],11.6%
same,"viability, T/C",[16],8.11%
same,"viability, T/C",[3],96.8%
same,"viability, T/C",[17],107%
same,"viability, T/C",[4],93.4%
same,"viability, T/C",[18],30.4%
same,"viability, T/C",[19],10.7%
same,"viability, T/C",[20],7.69%
same,"viability, T/C",[5],94.7%
same,"viability, T/C",[21],106%
same,"viability, T/C",[6],95.3%
same,"viability, T/C",[22],27.5%
same,"viability, T/C",[23],11.1%
same,"viability, T/C",[24],8.75%
same,"viability, T/C",[7],89.8%
same,"viability, T/C",[25],117%
same,"viability, T/C",[8],105%
same,"viability, T/C",[26],27.2%
same,"viability, T/C",[27],10.7%
same,"viability, T/C",[28],6.79%
same,"viability, T/C",[9],97.7%
same,"viability, T/C",[29],92%
same,"viability, T/C",[10],77.4%
same,"viability, T/C",[30],10.7%
same,"viability, T/C",[31],6.38%
same,"viability, T/C",[32],4.15%
same,"viability, T/C",[11],45.7%
same,"viability, T/C",[33],39.1%
same,"viability, T/C",[12],30.1%
same,"viability, T/C",[34],4.8%
same,"viability, T/C",[35],4.1%
same,"viability, T/C",[36],2.86%
